The target of assay [1] is Sodium-dependent noradrenaline transporter (Homo sapiens) (UniProt P23975). Briefly: Inhibition of human recombinant NET at 10 uM by radioligand binding assay.
Assay [2] deals with T1, Cholecystokinin receptor type A (Homo sapiens) (UniProt P32238).
T1 sequence (whole entry): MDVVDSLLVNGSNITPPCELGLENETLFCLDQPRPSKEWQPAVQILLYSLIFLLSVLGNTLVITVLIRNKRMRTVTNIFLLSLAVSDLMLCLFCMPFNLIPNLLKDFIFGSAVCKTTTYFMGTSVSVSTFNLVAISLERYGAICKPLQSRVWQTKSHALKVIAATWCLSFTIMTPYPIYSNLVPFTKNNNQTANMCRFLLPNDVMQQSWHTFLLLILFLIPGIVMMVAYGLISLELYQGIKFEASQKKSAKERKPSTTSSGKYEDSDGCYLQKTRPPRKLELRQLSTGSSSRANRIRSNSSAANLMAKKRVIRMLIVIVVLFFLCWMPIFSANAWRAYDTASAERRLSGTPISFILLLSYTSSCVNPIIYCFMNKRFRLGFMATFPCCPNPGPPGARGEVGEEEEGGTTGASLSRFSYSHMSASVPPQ
Kind of assay: Inhibition of human recombinant CCK1 receptor at 10 uM by radioligand binding assay.

Assay [3] addresses 5-hydroxytryptamine receptor 7 (Homo sapiens) (UniProt P34969). Briefly: Inhibition of human recombinant 5HT7 receptor at 10 uM by radioligand binding assay.
Assay [4] addresses T2, Vasoactive intestinal polypeptide receptor 1 (Homo sapiens) (UniProt P32241).
T2 sequence (whole entry): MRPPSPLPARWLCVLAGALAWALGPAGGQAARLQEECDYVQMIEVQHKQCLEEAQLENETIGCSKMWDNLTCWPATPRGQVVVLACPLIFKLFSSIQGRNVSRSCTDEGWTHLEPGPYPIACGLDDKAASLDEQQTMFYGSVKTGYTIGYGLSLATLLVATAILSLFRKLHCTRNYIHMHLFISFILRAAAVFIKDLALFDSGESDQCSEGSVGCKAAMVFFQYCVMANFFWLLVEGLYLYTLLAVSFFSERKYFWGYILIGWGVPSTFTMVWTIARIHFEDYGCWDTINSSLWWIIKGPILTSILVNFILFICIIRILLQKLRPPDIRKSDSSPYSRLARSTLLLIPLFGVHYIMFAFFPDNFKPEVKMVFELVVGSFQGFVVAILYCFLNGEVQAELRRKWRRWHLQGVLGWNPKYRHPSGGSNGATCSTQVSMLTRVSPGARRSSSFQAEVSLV
Kind of assay: Inhibition of human recombinant VPAC1 receptor at 10 uM by radioligand binding assay.

Assay [5] concerns the target 5-hydroxytryptamine receptor 1B (Homo sapiens) (UniProt P28222). Kind of assay: Inhibition of human recombinant 5HT1B receptor at 10 uM by radioligand binding assay.
The target of assay [6] is Adrenergic receptor alpha-2 (Homo sapiens) (UniProt P08913+P18825+P18089). Briefly: Inhibition of human recombinant alpha2 receptor at 10 uM by radioligand binding assay.
The target in assay [7] is Mu-type opioid receptor (Homo sapiens) (UniProt P35372). Briefly: Inhibition of human recombinant MOP receptor at 10 uM by radioligand binding assay.
The target in assay [8] is Beta-1 adrenergic receptor (Homo sapiens) (UniProt P08588). Briefly: Inhibition of human recombinant beta1 receptor at 10 uM by radioligand binding assay.
The target in assay [9] is Vasopressin V1a receptor (Homo sapiens) (UniProt P37288). Kind of assay: Inhibition of human recombinant V1a receptor at 10 uM by radioligand binding assay.
The test system of assay [10] is 5-hydroxytryptamine receptor 2A. Briefly: Inhibition of human recombinant 5HT2A receptor at 10 uM by radioligand binding assay.
The target in assay [11] is Melatonin receptor type 1A (Homo sapiens) (UniProt P48039). Briefly: Inhibition of human recombinant MT1 receptor at 10 uM by radioligand binding assay.
The target of assay [12] is T3, Neuromedin-K receptor (Homo sapiens) (UniProt P29371).
T3 sequence (whole entry): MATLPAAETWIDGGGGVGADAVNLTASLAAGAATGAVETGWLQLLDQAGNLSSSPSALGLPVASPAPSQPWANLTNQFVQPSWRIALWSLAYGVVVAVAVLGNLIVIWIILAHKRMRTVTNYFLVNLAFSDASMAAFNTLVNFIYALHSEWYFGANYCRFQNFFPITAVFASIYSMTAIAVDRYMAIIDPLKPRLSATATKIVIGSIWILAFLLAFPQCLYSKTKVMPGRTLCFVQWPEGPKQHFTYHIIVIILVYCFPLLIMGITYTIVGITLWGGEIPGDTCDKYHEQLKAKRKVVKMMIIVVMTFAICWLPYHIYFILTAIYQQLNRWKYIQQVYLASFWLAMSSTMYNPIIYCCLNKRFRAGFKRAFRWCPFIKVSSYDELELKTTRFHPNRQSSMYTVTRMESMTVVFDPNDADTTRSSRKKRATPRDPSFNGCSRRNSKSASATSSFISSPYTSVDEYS
Kind of assay: Inhibition of human recombinant NK3 receptor at 10 uM by radioligand binding assay.

Assay [13] concerns the target T4, Substance-K receptor (Homo sapiens) (UniProt P21452).
T4 sequence (whole entry): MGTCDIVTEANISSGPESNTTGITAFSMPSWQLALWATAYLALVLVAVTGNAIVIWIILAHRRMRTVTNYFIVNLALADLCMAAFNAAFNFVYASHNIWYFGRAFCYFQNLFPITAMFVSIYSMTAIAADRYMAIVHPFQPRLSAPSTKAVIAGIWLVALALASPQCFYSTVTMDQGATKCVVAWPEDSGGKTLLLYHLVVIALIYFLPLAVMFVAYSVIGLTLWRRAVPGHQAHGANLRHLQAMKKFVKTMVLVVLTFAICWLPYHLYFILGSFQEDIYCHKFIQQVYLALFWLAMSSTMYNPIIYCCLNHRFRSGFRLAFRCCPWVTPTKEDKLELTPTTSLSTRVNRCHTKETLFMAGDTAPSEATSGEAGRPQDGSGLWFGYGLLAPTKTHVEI
Kind of assay: Inhibition of human recombinant NK2 receptor at 10 uM by radioligand binding assay.

The nature of assay [14]: Inhibition of GSNOR expressed in Escherichia coli using GSNO by cuvette method.

pIC50: −log10 of the molar value. Active and inactive are the calls of the source. The rule behind the calls is not given here.

Chain of Beta-1 adrenergic receptor (Homo sapiens) (P08588 whole entry, looked up): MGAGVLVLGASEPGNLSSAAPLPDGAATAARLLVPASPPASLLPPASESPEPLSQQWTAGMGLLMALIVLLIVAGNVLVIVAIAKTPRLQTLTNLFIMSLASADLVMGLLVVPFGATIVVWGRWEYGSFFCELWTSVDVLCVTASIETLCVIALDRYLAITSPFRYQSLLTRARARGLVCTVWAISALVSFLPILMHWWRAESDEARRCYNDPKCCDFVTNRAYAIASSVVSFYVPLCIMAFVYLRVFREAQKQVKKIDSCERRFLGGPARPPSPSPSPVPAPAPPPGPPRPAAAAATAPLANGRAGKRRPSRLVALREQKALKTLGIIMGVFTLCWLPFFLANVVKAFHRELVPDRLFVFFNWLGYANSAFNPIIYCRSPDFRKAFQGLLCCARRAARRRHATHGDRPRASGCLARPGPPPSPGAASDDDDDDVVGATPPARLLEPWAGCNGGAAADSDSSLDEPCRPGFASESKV
Chain of Melatonin receptor type 1A (Homo sapiens) (P48039 whole entry): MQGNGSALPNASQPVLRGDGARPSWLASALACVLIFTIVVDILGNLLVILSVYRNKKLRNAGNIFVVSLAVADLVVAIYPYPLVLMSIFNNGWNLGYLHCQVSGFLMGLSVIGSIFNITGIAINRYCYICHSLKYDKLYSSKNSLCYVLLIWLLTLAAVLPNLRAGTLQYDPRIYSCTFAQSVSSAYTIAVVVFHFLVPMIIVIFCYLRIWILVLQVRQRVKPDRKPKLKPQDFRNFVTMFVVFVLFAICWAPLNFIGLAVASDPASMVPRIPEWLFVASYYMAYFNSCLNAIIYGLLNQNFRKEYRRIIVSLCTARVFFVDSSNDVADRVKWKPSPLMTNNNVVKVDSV
Chain of 5-hydroxytryptamine receptor 7 (Homo sapiens) (P34969 whole entry): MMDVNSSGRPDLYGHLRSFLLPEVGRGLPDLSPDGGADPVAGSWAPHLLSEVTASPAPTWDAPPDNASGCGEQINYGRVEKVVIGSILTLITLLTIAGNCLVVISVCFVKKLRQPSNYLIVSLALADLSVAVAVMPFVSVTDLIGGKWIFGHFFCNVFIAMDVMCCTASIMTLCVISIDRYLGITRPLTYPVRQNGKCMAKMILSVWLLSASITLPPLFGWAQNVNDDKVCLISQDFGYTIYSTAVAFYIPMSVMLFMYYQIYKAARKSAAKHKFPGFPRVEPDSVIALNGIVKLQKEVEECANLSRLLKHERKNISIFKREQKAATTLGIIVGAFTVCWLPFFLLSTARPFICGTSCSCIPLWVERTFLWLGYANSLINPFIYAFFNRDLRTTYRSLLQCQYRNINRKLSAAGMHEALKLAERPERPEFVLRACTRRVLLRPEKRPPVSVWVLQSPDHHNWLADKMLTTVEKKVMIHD
Chain of Vasopressin V1a receptor (Homo sapiens) (P37288 whole entry, looked up): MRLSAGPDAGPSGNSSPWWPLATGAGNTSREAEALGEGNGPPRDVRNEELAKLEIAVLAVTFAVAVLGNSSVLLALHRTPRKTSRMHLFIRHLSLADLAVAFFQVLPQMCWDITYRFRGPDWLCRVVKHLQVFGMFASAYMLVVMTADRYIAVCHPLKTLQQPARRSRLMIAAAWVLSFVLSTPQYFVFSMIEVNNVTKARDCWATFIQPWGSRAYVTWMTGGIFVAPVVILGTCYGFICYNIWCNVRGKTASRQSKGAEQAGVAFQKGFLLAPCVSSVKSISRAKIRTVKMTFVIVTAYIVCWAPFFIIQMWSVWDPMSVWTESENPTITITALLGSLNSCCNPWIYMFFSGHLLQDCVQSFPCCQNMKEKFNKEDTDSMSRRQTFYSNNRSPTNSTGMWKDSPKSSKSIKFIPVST
Chain of 5-hydroxytryptamine receptor 1B (Homo sapiens) (P28222 whole entry): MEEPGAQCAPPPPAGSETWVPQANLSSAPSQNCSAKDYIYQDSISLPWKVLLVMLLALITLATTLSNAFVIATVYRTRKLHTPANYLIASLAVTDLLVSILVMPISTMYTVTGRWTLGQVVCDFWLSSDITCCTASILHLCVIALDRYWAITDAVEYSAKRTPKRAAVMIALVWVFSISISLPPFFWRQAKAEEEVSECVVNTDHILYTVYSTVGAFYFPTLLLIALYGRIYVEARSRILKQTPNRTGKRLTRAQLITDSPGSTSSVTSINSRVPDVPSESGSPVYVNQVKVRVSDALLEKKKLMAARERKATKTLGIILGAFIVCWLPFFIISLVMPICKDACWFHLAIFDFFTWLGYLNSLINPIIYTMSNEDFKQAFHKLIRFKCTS
Chain of Sodium-dependent noradrenaline transporter (Homo sapiens) (P23975 whole entry): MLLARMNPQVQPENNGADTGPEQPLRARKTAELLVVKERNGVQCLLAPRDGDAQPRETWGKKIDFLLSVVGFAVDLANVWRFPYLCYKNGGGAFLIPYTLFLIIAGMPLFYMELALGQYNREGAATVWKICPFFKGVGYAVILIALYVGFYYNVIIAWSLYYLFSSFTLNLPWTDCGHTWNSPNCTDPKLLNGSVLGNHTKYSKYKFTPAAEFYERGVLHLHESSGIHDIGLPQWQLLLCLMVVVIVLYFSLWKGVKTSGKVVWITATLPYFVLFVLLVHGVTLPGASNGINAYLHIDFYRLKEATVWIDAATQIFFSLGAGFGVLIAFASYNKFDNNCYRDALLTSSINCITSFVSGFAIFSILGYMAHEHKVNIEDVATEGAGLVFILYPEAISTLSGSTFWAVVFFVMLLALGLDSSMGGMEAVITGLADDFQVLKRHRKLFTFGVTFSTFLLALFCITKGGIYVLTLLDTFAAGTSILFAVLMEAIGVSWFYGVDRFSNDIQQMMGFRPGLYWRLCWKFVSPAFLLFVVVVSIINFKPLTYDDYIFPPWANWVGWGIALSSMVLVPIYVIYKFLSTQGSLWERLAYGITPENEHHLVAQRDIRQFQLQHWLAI
Chain of Mu-type opioid receptor (Homo sapiens) (P35372 whole entry): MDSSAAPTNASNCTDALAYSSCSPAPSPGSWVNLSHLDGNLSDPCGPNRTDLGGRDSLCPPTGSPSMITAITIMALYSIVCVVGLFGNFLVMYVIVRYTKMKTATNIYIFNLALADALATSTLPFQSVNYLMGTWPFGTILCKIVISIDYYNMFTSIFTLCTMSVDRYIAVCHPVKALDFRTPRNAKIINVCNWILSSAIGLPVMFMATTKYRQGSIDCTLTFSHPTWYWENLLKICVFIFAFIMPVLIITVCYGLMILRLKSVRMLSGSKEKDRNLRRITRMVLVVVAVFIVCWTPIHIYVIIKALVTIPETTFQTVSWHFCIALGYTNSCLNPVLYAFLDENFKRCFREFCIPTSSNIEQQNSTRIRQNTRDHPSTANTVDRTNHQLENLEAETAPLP

As to `Cc1cc(C(N)=O)ccc1-c1c(-c2ccc(-n3ccnc3)cc2)ccn1CCC(=O)O`, the inhibition result in [1], in assay [2], in assay [3], in assay [4], in assay [5] and in [6] was “inactive” in each case. The inhibition entry in assay [7], in assay [8], in [9], in assay [10], in assay [11] and in assay [12] was “inactive” each time. For the same compound, the inhibition entry in [13] was “inactive”.

With `COc1ccc(-c2ccn(-c3ccc(C(=O)O)c(O)c3)c2-c2ccc(C(N)=O)cc2C)cc1`, the inhibition entry in assay [1], in [2], in [3], in assay [4], in assay [5] and in [6] was “Active” throughout. Besides, the inhibition entry in [7], in assay [8], in assay [9], in assay [10], in assay [11] and in assay [12] was “Active” each time. In addition, in [13], the inhibition entry was “Active”. Besides, the pIC50 (in general, the IC50 on a negative log10 scale, so that one unit is a factor of ten) in [14] was 6.55.

Turning to `Cc1cc(C(N)=O)ccc1-c1c(CCC(=O)O)ccn1-c1ccc(-n2ccnc2)cc1`, the inhibition result in assay [1], in assay [2], in [3], in assay [4], in assay [5] and in [6] was “inactive” throughout. Moreover, the inhibition entry in assay [7], in assay [8], in assay [9], in assay [10], in assay [11] and in assay [12] was “inactive” each time. In addition, in assay [13], the inhibition result was “inactive”.

Regarding `Cc1cc(C(N)=O)ccc1-n1c(CCC(=O)O)ccc1-c1ccc(-n2ccnc2)cc1` [N6022], the inhibition result in assay [1], in assay [2], in [3], in assay [4], in [5] and in assay [6] was “inactive” in each case. Besides, the inhibition entry in assay [7], in assay [8], in assay [9], in assay [11], in [12] and in [13] was “inactive” throughout. Further, the pIC50 in [14] is 7.70.

For `COc1ccc(-c2ccn(-c3ccc(O)c([N+](=O)[O-])c3)c2-c2ccc(C(N)=O)cc2C)cc1`, the inhibition result in assay [1], in assay [2], in assay [3], in assay [4], in assay [5] and in assay [6] was “Active” throughout. For the same compound, the inhibition entry in assay [7], in [8], in [9], in assay [10], in assay [11] and in assay [12] was “Active” each time. In addition, the inhibition entry in assay [13] was “Active”. The pIC50 in [14] was 6.72.

Values taken from ChEMBL document CHEMBL1781986, “Structure-activity relationships of pyrrole based S-nitrosoglutathione reductase inhibitors: pyrrole regioisomers and propionic acid replacement” (Bioorg Med Chem Lett, 2011).
